According to patent publication US20080009418A1, “Selective Inhibitors” (Alchemia LTD., priority 2004, published 2008):

Assays:
Human δ-opioid (DOP) = molecular target: T1, Human δ-opioid (DOP) (Homo sapiens, UniProt P41143); assay: Radioligand binding, human δ-opioid (DOP) membranes, FlashPlate, [3H]-Bremazocine; details: compound at 10 μM; [3H]-Bremazocine
T1 construct: purchased Perkin Elmer Biosignal
How it was run: (§1)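 Cloned human receptor membranes were coated onto FlashPlate wells and incubated with radioligand and compound (added from a 0.5 mM DMSO daughter plate) for 1 hour at room temperature in the dark. Scintillation counting gave percent inhibition, with DMSO defining total and reference ligand defining non-specific binding.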

Human κ-Opioid (KOP) = molecular target: T2, Human κ-Opioid (KOP) (Homo sapiens, UniProt P41145); assay: Radioligand binding, human κ-opioid (KOP) membranes, filtration, [3H]-Diprenorphine; details: compound at 10 μM; [3H]-Diprenorphine
T2 construct: purchased Perkin Elmer Biosignal
How it was run: (§2)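 Percent inhibition of radioligand binding measured on recombinant human membranes: NK1 with [125I]-Substance P, KOP with [3H]-Diprenorphine. Incubation 1 h at room temperature, then harvest onto 0.3% PEI-soaked filters, cold Tris-HCl pH 7.4 washes and scintillation counting; non-specific binding from reference ligand wells.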

Human Melanocortin (MC3) = molecular target: T3, Human Melanocortin (MC3) (Homo sapiens, UniProt P41968); assay: Radioligand binding, human melanocortin MC3 membranes, FlashPlate, [125I]-NDP-αMSH; details: compound at 10 μM; [125I]-NDP-αMSH
T3 construct: purchased Perkin Elmer Biosignal
How it was run: as §1

Human Melanocortin (MC4) = molecular target: T4, Human Melanocortin (MC4) (Homo sapiens, UniProt P32245); assay: Radioligand binding, human melanocortin MC4 membranes, FlashPlate, [125I]-NDP-αMSH; details: compound at 10 μM; [125I]-NDP-αMSH
T4 construct: purchased Perkin Elmer Biosignal
How it was run: as §1

Human melanocortin (MC5) = molecular target: T5, Human melanocortin (MC5) (Homo sapiens, UniProt P33032); assay: Radioligand binding, human melanocortin MC5 membranes, FlashPlate, [125I]-NDP-αMSH; details: compound at 10 μM; [125I]-NDP-αMSH
T5 construct: purchased Perkin Elmer Biosignal
How it was run: as §1

[1] = molecular target: T6, Human melanin-concentrating hormone (MCH1) (Homo sapiens, UniProt Q99705); assay: Radioligand binding, human melanin-concentrating hormone MCH1 membranes, FlashPlate, [125I]-S36057; details: compound at 10 μM; [125I]-S36057
T6 construct: purchased Perkin Elmer Biosignal
How it was run: as §1

Human μ-opioid (MOP) = molecular target: T7, Human μ-opioid (MOP) (Homo sapiens, UniProt P35372); assay: Radioligand binding, human μ-opioid (MOP) membranes, FlashPlate, [3H]-Naloxone; details: compound at 10 μM; [3H]-Naloxone
T7 construct: purchased Perkin Elmer Biosignal
How it was run: as §1

Human neurokinin (NK1) = molecular target: T8, Human neurokinin (NK1) (Homo sapiens, UniProt P25103); assay: Radioligand binding, human neurokinin NK1 membranes, filtration, [125I]-Substance P; details: compound at 10 μM; [125I]-Substance P
T8 construct: purchased Perkin Elmer Biosignal
How it was run: as §2

[2] = molecular target: T9, Human neuropeptide Y (NPY-Y1) (Homo sapiens, UniProt P25929); assay: Radioligand binding, human neuropeptide Y NPY-Y1 membranes, FlashPlate, [125I]-PYY; details: compound at 10 μM; [125I]-PYY
T9 construct: purchased Perkin Elmer Biosignal
T9 sequence (P25929 1-384): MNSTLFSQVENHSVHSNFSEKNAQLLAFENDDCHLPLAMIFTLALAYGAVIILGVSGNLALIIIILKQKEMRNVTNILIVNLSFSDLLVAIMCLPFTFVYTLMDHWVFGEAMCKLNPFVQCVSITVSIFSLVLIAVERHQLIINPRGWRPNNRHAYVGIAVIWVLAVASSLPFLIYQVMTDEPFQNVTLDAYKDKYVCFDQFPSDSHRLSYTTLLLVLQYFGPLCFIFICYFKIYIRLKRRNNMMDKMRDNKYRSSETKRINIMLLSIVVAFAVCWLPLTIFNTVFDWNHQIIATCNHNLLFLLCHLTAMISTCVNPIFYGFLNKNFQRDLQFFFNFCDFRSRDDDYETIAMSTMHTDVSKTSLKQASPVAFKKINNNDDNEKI
How it was run: as §1

Human opioid (ORL1) = molecular target: T10, Human opioid (ORL1) (Homo sapiens, UniProt P41146); assay: Radioligand binding, human opioid ORL1 membranes, FlashPlate, [125I]-Nociceptin; details: compound at 10 μM; [125I]-Nociceptin
T10 construct: purchased Perkin Elmer Biosignal
How it was run: as §1

Mouse urotensin (mUR2) = molecular target: T11, Mouse urotensin (mUR2) (Mus musculus, UniProt Q8VIH9); assay: Radioligand binding, mouse urotensin mUR2 membranes, FlashPlate, [125I]-Urotensin II; details: compound at 10 μM; [125I]-Urotensin II
T11 construct: purchased Perkin Elmer Biosignal
T11 sequence (Q8VIH9 1-385): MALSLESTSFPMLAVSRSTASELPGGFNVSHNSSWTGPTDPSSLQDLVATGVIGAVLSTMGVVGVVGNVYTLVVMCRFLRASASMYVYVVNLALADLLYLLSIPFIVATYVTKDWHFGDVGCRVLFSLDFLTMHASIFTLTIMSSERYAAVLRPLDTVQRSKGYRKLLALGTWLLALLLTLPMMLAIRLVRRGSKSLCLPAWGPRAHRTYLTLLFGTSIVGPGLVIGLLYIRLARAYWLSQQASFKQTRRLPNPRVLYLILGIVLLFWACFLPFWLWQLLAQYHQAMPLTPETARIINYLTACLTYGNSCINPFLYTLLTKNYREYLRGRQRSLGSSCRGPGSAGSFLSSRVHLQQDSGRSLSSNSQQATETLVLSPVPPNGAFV
How it was run: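 Cloned mouse urotensin (mUR2) receptor membranes from Perkin Elmer Biosignal were immobilized in FlashPlate microplates using a proprietary coating. Each well got 19.5 μl buffer, then 0.5 μl of DMSO, reference ligand, or compound. Adding 5 μl of [125I]-Urotensin II, diluted to 5× final concentration in binding buffer, started binding. Plates were sealed with TopSeal-A and incubated 1 hour at room temperature in the dark. Wells were counted for 30 seconds each on a TopCount after a 60-second delay, and percentage inhibition was calculated.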

T4 sequence (P32245 whole entry): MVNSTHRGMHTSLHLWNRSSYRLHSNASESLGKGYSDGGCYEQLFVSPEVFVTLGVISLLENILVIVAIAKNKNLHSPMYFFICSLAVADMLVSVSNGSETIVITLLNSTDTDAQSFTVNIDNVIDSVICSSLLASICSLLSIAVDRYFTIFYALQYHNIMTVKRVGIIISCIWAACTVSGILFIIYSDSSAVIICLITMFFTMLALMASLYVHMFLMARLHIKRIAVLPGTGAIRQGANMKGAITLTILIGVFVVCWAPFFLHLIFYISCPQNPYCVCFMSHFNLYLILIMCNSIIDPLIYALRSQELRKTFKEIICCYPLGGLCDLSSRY
T8 sequence (P25103 whole entry): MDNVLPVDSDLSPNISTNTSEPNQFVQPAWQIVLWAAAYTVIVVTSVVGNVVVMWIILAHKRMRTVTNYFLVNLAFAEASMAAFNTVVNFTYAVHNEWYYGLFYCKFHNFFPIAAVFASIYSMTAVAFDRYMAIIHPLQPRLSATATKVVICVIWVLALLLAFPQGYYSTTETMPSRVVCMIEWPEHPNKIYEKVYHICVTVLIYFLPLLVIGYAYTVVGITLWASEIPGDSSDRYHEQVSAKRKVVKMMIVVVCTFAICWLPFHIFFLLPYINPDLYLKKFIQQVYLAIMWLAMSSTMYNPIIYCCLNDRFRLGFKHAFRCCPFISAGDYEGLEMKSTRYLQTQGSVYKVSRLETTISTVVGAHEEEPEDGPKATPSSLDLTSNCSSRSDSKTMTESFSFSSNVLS
T1 sequence (P41143 whole entry): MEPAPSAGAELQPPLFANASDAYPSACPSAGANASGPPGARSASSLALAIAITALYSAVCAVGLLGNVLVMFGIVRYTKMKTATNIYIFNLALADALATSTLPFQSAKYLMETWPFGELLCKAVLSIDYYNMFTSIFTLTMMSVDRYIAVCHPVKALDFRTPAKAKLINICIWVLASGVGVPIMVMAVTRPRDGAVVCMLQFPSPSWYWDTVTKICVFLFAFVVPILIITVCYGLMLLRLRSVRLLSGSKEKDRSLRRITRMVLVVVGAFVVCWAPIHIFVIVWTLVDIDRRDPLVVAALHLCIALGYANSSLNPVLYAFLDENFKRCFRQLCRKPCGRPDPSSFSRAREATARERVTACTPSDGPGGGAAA
T6 sequence (Q99705 whole entry): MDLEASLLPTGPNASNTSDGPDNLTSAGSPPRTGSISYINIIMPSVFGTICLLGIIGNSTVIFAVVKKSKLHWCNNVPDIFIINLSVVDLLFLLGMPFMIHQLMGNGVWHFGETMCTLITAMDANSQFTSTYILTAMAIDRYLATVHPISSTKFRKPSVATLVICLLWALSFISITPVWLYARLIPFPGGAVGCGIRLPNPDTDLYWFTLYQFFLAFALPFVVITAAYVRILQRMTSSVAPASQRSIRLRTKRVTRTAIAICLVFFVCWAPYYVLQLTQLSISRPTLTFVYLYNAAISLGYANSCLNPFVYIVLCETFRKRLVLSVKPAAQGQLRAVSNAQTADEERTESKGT
T10 sequence (P41146 whole entry): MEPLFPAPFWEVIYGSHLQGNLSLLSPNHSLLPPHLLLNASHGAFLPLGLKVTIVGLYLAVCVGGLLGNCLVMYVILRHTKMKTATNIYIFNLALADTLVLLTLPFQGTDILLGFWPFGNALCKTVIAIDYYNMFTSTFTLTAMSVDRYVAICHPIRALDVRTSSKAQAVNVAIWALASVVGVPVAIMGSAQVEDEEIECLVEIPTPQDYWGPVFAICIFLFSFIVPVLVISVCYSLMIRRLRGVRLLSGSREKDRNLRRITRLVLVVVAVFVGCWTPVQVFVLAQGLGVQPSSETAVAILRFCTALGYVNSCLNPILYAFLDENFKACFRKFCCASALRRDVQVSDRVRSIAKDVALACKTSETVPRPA
T2 sequence (P41145 whole entry): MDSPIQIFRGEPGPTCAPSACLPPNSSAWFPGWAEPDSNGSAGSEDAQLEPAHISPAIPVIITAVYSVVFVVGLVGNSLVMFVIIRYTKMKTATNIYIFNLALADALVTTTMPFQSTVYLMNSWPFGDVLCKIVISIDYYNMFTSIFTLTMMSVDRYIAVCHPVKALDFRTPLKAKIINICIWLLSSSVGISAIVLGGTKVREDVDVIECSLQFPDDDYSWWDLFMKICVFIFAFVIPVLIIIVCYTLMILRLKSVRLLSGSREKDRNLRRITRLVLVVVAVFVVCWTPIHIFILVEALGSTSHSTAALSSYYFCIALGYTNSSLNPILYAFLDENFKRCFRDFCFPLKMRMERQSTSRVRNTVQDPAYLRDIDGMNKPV
T3 sequence (P41968 whole entry): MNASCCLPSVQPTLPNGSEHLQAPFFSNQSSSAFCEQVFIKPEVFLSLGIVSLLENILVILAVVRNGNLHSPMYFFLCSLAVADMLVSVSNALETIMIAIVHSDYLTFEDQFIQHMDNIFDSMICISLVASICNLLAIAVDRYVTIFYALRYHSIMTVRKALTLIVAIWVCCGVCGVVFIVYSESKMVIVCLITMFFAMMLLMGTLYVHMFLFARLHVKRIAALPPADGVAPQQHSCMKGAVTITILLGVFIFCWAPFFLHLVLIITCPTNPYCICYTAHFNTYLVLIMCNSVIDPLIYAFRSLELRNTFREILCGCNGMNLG
T5 sequence (P33032 whole entry): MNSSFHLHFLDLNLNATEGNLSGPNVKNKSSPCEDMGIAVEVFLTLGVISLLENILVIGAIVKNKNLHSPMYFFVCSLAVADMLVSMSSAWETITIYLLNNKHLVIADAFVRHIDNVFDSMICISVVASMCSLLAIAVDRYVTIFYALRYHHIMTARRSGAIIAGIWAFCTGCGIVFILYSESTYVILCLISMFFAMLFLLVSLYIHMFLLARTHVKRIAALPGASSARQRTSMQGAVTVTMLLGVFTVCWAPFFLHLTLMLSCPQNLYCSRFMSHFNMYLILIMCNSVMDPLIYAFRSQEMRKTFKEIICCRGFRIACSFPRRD
T7 sequence (P35372 whole entry): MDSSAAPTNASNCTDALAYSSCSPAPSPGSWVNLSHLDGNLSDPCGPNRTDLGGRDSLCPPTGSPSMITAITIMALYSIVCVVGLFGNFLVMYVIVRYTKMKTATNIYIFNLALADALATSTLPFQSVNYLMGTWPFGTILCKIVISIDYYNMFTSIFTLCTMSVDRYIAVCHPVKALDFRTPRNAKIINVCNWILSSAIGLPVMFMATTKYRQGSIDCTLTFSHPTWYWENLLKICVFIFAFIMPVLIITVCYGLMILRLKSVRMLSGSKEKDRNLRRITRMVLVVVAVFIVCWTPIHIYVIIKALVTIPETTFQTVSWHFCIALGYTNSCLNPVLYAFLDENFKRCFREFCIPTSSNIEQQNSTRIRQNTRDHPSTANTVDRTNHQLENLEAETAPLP

CO[C@H]1[C@H](O)[C@@H](COCc2ccc3ccccc3c2)OC(OCCc2ccccc2)[C@@H]1NC(=O)CCCNC(=N)N (stereo partly shown) [compound 116]
A1 radioligand binding, percentage inhibition (Human δ-opioid (DOP)): − (“−” indicates less than 50% inhibition at 10 μM)
A2 radioligand binding, percentage inhibition (Human κ-Opioid (KOP)): − (“−” indicates less than 50% inhibition at 10 μM)
A3 radioligand binding, percentage inhibition (Human Melanocortin (MC3)): − (“−” indicates less than 50% inhibition at 10 μM)
A4 radioligand binding, percentage inhibition (Human Melanocortin (MC4)): − (“−” indicates less than 50% inhibition at 10 μM)
A5 radioligand binding, percentage inhibition (Human melanocortin (MC5)): + (“+” indicates greater than 50% inhibition at 10 μM)
A6 radioligand binding, percentage inhibition [1]: − (“−” indicates less than 50% inhibition at 10 μM)
A7 radioligand binding, percentage inhibition (Human μ-opioid (MOP)): − (“−” indicates less than 50% inhibition at 10 μM)
A8 radioligand binding, percentage inhibition (Human neurokinin (NK1)): + (“+” indicates greater than 50% inhibition at 10 μM)
A9 radioligand binding, percentage inhibition [2]: − (“−” indicates less than 50% inhibition at 10 μM)
A10 radioligand binding, percentage inhibition (Human opioid (ORL1)): − (“−” indicates less than 50% inhibition at 10 μM)
A11 radioligand binding, percentage inhibition (Mouse urotensin (mUR2)): − (“−” indicates less than 50% inhibition at 10 μM)

CO[C@H]1[C@H](O)[C@@H](COCc2ccccc2)OC(OCCc2ccccc2)[C@@H]1NC(=O)CCNC(=N)N (stereo partly shown) [compound 117]
A1 radioligand binding, percentage inhibition (Human δ-opioid (DOP)): − (“−” indicates less than 50% inhibition at 10 μM)
A2 radioligand binding, percentage inhibition (Human κ-Opioid (KOP)): + (“+” indicates greater than 50% inhibition at 10 μM)
A3 radioligand binding, percentage inhibition (Human Melanocortin (MC3)): − (“−” indicates less than 50% inhibition at 10 μM)
A4 radioligand binding, percentage inhibition (Human Melanocortin (MC4)): − (“−” indicates less than 50% inhibition at 10 μM)
A5 radioligand binding, percentage inhibition (Human melanocortin (MC5)): − (“−” indicates less than 50% inhibition at 10 μM)
A6 radioligand binding, percentage inhibition [1]: − (“−” indicates less than 50% inhibition at 10 μM)
A7 radioligand binding, percentage inhibition (Human μ-opioid (MOP)): − (“−” indicates less than 50% inhibition at 10 μM)
A8 radioligand binding, percentage inhibition (Human neurokinin (NK1)): + (“+” indicates greater than 50% inhibition at 10 μM)
A9 radioligand binding, percentage inhibition [2]: − (“−” indicates less than 50% inhibition at 10 μM)
A10 radioligand binding, percentage inhibition (Human opioid (ORL1)): − (“−” indicates less than 50% inhibition at 10 μM)
A11 radioligand binding, percentage inhibition (Mouse urotensin (mUR2)): − (“−” indicates less than 50% inhibition at 10 μM)

CO[C@H]1[C@H](O)[C@@H](COCc2ccccc2)OC(OCCc2ccccc2)[C@@H]1NC(=O)CCCNC(=N)N (stereo partly shown) [compound 118]
A1 radioligand binding, percentage inhibition (Human δ-opioid (DOP)): − (“−” indicates less than 50% inhibition at 10 μM)
A2 radioligand binding, percentage inhibition (Human κ-Opioid (KOP)): − (“−” indicates less than 50% inhibition at 10 μM)
A3 radioligand binding, percentage inhibition (Human Melanocortin (MC3)): − (“−” indicates less than 50% inhibition at 10 μM)
A4 radioligand binding, percentage inhibition (Human Melanocortin (MC4)): − (“−” indicates less than 50% inhibition at 10 μM)
A5 radioligand binding, percentage inhibition (Human melanocortin (MC5)): − (“−” indicates less than 50% inhibition at 10 μM)
A6 radioligand binding, percentage inhibition [1]: − (“−” indicates less than 50% inhibition at 10 μM)
A7 radioligand binding, percentage inhibition (Human μ-opioid (MOP)): − (“−” indicates less than 50% inhibition at 10 μM)
A8 radioligand binding, percentage inhibition (Human neurokinin (NK1)): + (“+” indicates greater than 50% inhibition at 10 μM)
A9 radioligand binding, percentage inhibition [2]: − (“−” indicates less than 50% inhibition at 10 μM)
A10 radioligand binding, percentage inhibition (Human opioid (ORL1)): − (“−” indicates less than 50% inhibition at 10 μM)
A11 radioligand binding, percentage inhibition (Mouse urotensin (mUR2)): − (“−” indicates less than 50% inhibition at 10 μM)

CO[C@H]1[C@H](O)[C@@H](COCc2ccc(Cl)cc2)OC(OCCc2ccccc2)[C@@H]1NC(=O)CNC(=N)N (stereo partly shown) [compound 119]
A1 radioligand binding, percentage inhibition (Human δ-opioid (DOP)): − (“−” indicates less than 50% inhibition at 10 μM)
A2 radioligand binding, percentage inhibition (Human κ-Opioid (KOP)): − (“−” indicates less than 50% inhibition at 10 μM)
A3 radioligand binding, percentage inhibition (Human Melanocortin (MC3)): − (“−” indicates less than 50% inhibition at 10 μM)
A4 radioligand binding, percentage inhibition (Human Melanocortin (MC4)): − (“−” indicates less than 50% inhibition at 10 μM)
A5 radioligand binding, percentage inhibition (Human melanocortin (MC5)): − (“−” indicates less than 50% inhibition at 10 μM)
A6 radioligand binding, percentage inhibition [1]: − (“−” indicates less than 50% inhibition at 10 μM)
A7 radioligand binding, percentage inhibition (Human μ-opioid (MOP)): − (“−” indicates less than 50% inhibition at 10 μM)
A8 radioligand binding, percentage inhibition (Human neurokinin (NK1)): + (“+” indicates greater than 50% inhibition at 10 μM)
A9 radioligand binding, percentage inhibition [2]: − (“−” indicates less than 50% inhibition at 10 μM)
A10 radioligand binding, percentage inhibition (Human opioid (ORL1)): − (“−” indicates less than 50% inhibition at 10 μM)
A11 radioligand binding, percentage inhibition (Mouse urotensin (mUR2)): − (“−” indicates less than 50% inhibition at 10 μM)

CO[C@H]1[C@H](O)[C@@H](COCc2ccc(Cl)cc2)OC(OCCc2ccccc2)[C@@H]1NC(=O)CCNC(=N)N (stereo partly shown) [compound 120]
A1 radioligand binding, percentage inhibition (Human δ-opioid (DOP)): − (“−” indicates less than 50% inhibition at 10 μM)
A2 radioligand binding, percentage inhibition (Human κ-Opioid (KOP)): + (“+” indicates greater than 50% inhibition at 10 μM)
A3 radioligand binding, percentage inhibition (Human Melanocortin (MC3)): − (“−” indicates less than 50% inhibition at 10 μM)
A4 radioligand binding, percentage inhibition (Human Melanocortin (MC4)): + (“+” indicates greater than 50% inhibition at 10 μM)
A5 radioligand binding, percentage inhibition (Human melanocortin (MC5)): + (“+” indicates greater than 50% inhibition at 10 μM)
A6 radioligand binding, percentage inhibition [1]: − (“−” indicates less than 50% inhibition at 10 μM)
A7 radioligand binding, percentage inhibition (Human μ-opioid (MOP)): − (“−” indicates less than 50% inhibition at 10 μM)
A8 radioligand binding, percentage inhibition (Human neurokinin (NK1)): + (“+” indicates greater than 50% inhibition at 10 μM)
A9 radioligand binding, percentage inhibition [2]: − (“−” indicates less than 50% inhibition at 10 μM)
A10 radioligand binding, percentage inhibition (Human opioid (ORL1)): − (“−” indicates less than 50% inhibition at 10 μM)
A11 radioligand binding, percentage inhibition (Mouse urotensin (mUR2)): − (“−” indicates less than 50% inhibition at 10 μM)
